Measurements reported in patent US8299056B2 (Signal Pharmaceuticals, LLC, priority 2008, dated 2012).

The compounds below were run against T1, Syk (Homo sapiens, UniProt P43405) (assay: Syk HTRF assay). Settings: IC50 activity level, read-out: Activity Level.
T1 construct: purchased Carna Biosciences
Assay type: biochemical
Method in brief: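 HTRF kinase assay in HEPES pH 7.6 buffer with MgCl2, DTT and Triton X100; start mix of 87.5 μM ATP and 80 nM biotinylated peptide, 1 h at room temperature. EDTA stop, then Eu-anti-phosphotyrosine/streptavidin-DyLight 647 detection, read as 665/615 nm emission ratio.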

Row | IC50 [nM] | Structure (SMILES)
1 | 0.005 to 250 | Cc1n[nH]c2ncc(Nc3nc4cccc(N[C@H]5CC[C@@H](O)CC5)n4n3)cc12 [Example 541, cis-4-(2-(3-methyl-1H-pyrazolo[3,4-b]pyridin-5-ylamino)-[1,2,4]triazolo[1,5-a]pyridin-5-ylamino)cyclohexanol]
2 | 1000 to 10000 | Fc1ccc(Nc2nc3cccc(NC4CCCNC4)n3n2)cc1 (stereo in doubt) [Example 462, (R)-N^2-(4-fluorophenyl)-N^5-(piperidin-3-yl)-[1,2,4]triazolo[1,5-a]pyridin-2,5-diamine]
3 | 0.005 to 250 | CN(c1cccc2nc(Nc3ccc4c(cnn4C)c3)nn12)C1CCOCC1 [Example 542, N^5-methyl-N^2-(1-methyl-1H-indazol-5-yl)-N^5-(tetrahydro-2H-pyran-4-yl)-[1,2,4]triazolo[1,5-a]pyridine-2,5-diamine]
4 | 0.005 to 250 | Cn1ncc2cc(Nc3nc4cccc(NC5CCOCC5)n4n3)ccc21 [Example 551, N^2-(1-methyl-1H-indazol-5-yl)-N^5-(tetrahydro-2H-pyran-4-yl)-[1,2,4]triazolo[1,5-a]pyridine-2,5-diamine]
5 | 0.005 to 250 | N[C@H]1CC[C@H](Oc2cccc3nc(Nc4ccc(C(F)(F)F)cc4)nn23)CC1 (stereo in doubt) [Example 422, trans-5-(4-aminocyclohexyloxy)-N-(4-(trifluoromethyl)phenyl)-[1,2,4]triazolo[1,5-a]pyridin-2-amine]

Same assay, conditions: activity levels A-D, read-out: Activity Level (IC50 in the Syk HTRF assay)

Row | IC50 [nM] | Structure (SMILES)
6 | 0.005 to 250 | Cc1n[nH]c2cc(Nc3nc4cccc(N[C@H]5CCCC5O)n4n3)ccc12 (stereo in doubt) [Example 212, (1S,2S)-2-(2-(3-methyl-1H-indazol-6-ylamino)-[1,2,4]triazolo[1,5-a]pyridin-5-ylamino)cyclopentanol]
7 | 0.005 to 250 | O=c1cc(Cc2cccc3nc(Nc4ccc(C(F)(F)F)cc4)nn23)cc[nH]1 [Example 317, 4-((2-(4-(trifluoromethyl)phenylamino)-[1,2,4]triazolo[1,5-a]pyridin-5-yl)methyl)pyridin-2(1H)-one]

Same assay, conditions: read-out: Activity Level (Syk HTRF assay IC50)

Row | Structure (SMILES) | IC50 [nM]
8 | CN1Cc2cc(Nc3nc4cccc(CC5CCOCC5)n4n3)ccc2C1=O [Example 145, 2-methyl-5-(5-((tetrahydro-2H-pyran-4-yl)methyl)-[1,2,4]triazolo[1,5-a]pyridin-2-ylamino)isoinoldin-1-one] | 500 to 1000
9 | CN1Cc2cc(Nc3nc4cccc(NC5CCOCC5)n4n3)ccc2C1=O [Example 144, 2-methyl-5-(5-(tetrahydro-2H-pyran-4-ylamino)-[1,2,4]triazolo[1,5-a]pyridin-2-ylamino)isoinoldin-1-one] | 1000 to 10000

Continued, values first:

Row | IC50 [nM] | Structure (SMILES)
10 | 1000 to 10000 | CN1C(=O)Cc2ccc(Nc3nc4cccc(NC5CCOCC5)n4n3)cc21 [compound 119, 1-methyl-6-(5-(tetrahydro-2H-pyran-4-ylamino)-[1,2,4]triazolo[1,5-a]pyridin-2-ylamino)indolin-2-one]
11 | 0.005 to 250 | c1ccc(-c2cccc3nc(Nc4ccc(N5CCOCC5)nc4)nn23)cc1 [compound 41, N-(6-morpholinopyridin-3-yl)-5-phenyl-[1,2,4]triazolo[1,5-a]pyridin-2-amine]
